Test results reported in patent US7517911B2, “3,4,5-trimethoxy phenyl-based ester compound and preparation method thereof and whitening cosmetic composition containing the same” (Amorepacific Corporation, priority 2001, dated 2009).

How the values were obtained:
Mel-Ab cells = assay: Melanin-inhibiting effect in the melanocytes (Dooley method); assay type: cell-based, C57BL/6; conditions: 10 ppm in culture medium, absorbance at 400 nm, compared with cells cultured without compound
human skin [1] = assay: Whitening effect on the human skin (UVB-induced pigmentation, Chromameter); assay type: in vivo; conditions: applied for 10 weeks after UVB, 12 male volunteers
Excerpt: The brachia of twelve (12) healthy volunteers (males) were attached with opaque tape having 1.5 cm diameter holes, and then irradiated with UVB (ultraviolet rays B) in 1.5˜2 times the intensity of the minimum amount to form erythema for each volunteer, to induce pigmentation. After irradiating the UVB, 1% diluted solutions of the ester compounds of Examples 1˜6 (solvent was 1,3-butyleneglycol:ethanol=7:3) were applied on the above treated brachia for ten (10) weeks (the above 1% diluted solution was not applied on one brachium), and the colors of the skins thereof were measured by Chromameter CR2002 (manufactured by Minolta; Japan) per every one week. The difference of “L”, that is, “Δ L”, the amount of the increase of brightness of skin compared with those not applied with diluted solution, was measured. For reference, measurements for the cases that 3% kojic acid and vehicle (solvent) were applied were performed.

rabbit skin = assay: Test for skin irritation on animals (Draize P.I.I.); assay type: in vivo, rabbits; conditions: 1% diluted solution, 0.5 ml; for P.I.I.: measured 24 and 72 hours after application
Description: The hairs on the backs of six (6) healthy male rabbits were removed. After making areas of 2.5 cm×2.5 cm on the left and right sides of the back of each rabbit, nothing was applied on the left area of the back as control area, and 1% diluted solutions of the ester compounds of Examples 1˜6 (solvent was 1,3-butyleneglycol:ethanol=7:3) were applied on the right area of the back of the rabbits with an amount of 0.5 ml, one compound for each rabbit respectively. Irritations such as erythema, rash or edema were measured 24 hours and 72 hours after the application. In addition, the degree of irritation was determined according to the conventional, “P.I.I.” (Primary Irritation Index) of Draize, and the results are shown in Table 6.

guinea pig skin = assay: Test for radiation toxicity (UVA); assay type: in vivo
Description: The hairs on the backs of ten (10) guinea pigs were removed. After fixing the pigs, the back was divided into six (6) areas each having 2.0 cm×2.0 cm area, three (3) areas on the left side and three (3) on the right side. Right side areas were control areas prevented from being radiated, and left side areas were radiation areas. 1% (w/v) diluted solutions of ester compounds of Examples 1˜6 were applied thereto with an equal amount of 50 μl respectively, while using vehicle (1,3-butyleneglycol:ethanol=7:3) as a negative control, and using 0.1% 8-MOP(methoxypsoralene) as a positive control. After 30 minutes later, left sides of the back of the pig was shielded from light by aluminum foil, and UVA(320˜380 nm) was radiated from 10 cm distant with an final energy of 15J/cm^2 by using ultraviolet radiation device (waldmann). The skin of the guinea pig was observed after 24, 48 and 72 hours later. The irritation was graded as shown in table 5 with 0˜4 grades according to the intensity of the erythema and edema, and the sum was calculated. In the evaluation, the maximum value of the measurement that performed after 24, 48 and 72 hours later was chosen, and then the Irritation Index of an animal skin was calculated according to mathematical formula 1, and finally, the Radiation Toxicity Index was calculated according to mathematical Formula 2. Irritation Index of an animal skin=(Σ maximum value of erythema index+Σ maximum value of edema index)/number of animals [Mathematical Formula 1] Radiation Toxicity Index=(Irritation Index of an animal skin in an area of UV radiation)−(Irritation Index of an animal skin in an area UV non-radiation) [Mathematical Formula 2]

human skin [2] = assay: Test for application to human skin (patch test, CTFA Guideline); assay type: in vivo; conditions: for The number of volunteers having reaction, mark +: + = Intense erythema; for The number of volunteers having reaction, mark + / The number of volunteers having reaction, mark ++ / The number of volunteers having reaction, mark +++ / The number of volunteers having reaction, mark ± / The number of volunteers having reaction, mark −: 1% in patch base, n = 30; for The number of volunteers having reaction, mark ++: ++ = Intense erythema with edema; for The number of volunteers having reaction, mark +++: +++ = Intense erythema with edema &vesicle; for The number of volunteers having reaction, mark ±: ± = Mild erythema; for The number of volunteers having reaction, mark −: − = No visible reactions; for Average reaction (n = 30): {(grade × number of volunteers) × 100}/{maximum grade × total volunteers × number of test}, non-irritation standard value 1.0
Description: Each of the ester compounds of Examples 1˜6 were dissolved in a patch base shown in Table 8 to be 1% concentration respectively, to prepare test samples. 20 μl of each test sample was dropped in a Finn Chamber to make a patch, and the patch was attached to antebrachial skin (test region) and fixed with micro tape. The patch was attached for 24 hours, and after removing the patch, the test region was checked with marking pen, and then the region was observed after 1 and 24 hours.

[3] = 1% diluted solution (1,3-butyleneglycol:ethanol=7:3)
[4] = 1% (w/v) solution 50 μl, UVA 15J/cm^2, observed 24, 48 and 72 hours
[5] = 1% (w/v) solution, UVA 15J/cm^2

| Molecule | Melanin generation ratio (%) (Mel-Ab cells) | Increase of brightness of skin (Δ L) (human skin [1]; 3% kojic acid) | Increase of brightness of skin (Δ L) (human skin [1]; [3]) | Determination (skin irritation) (rabbit skin) | P.I.I. (rabbit skin) | Radiation Toxicity Index (guinea pig skin; [4]) | Determination (radiation toxicity) (guinea pig skin; [5]) | The number of volunteers having reaction, mark + (human skin [2]; 24 hours later) | The number of volunteers having reaction, mark ++ (human skin [2]; 24 hours later) | The number of volunteers having reaction, mark +++ (human skin [2]; 24 hours later) | The number of volunteers having reaction, mark ± (human skin [2]; 24 hours later) | The number of volunteers having reaction, mark − (human skin [2]; 24 hours later) | The number of volunteers having reaction, mark + (human skin [2]; 48 hours later) | The number of volunteers having reaction, mark ++ (human skin [2]; 48 hours later) | The number of volunteers having reaction, mark +++ (human skin [2]; 48 hours later) | The number of volunteers having reaction, mark ± (human skin [2]; 48 hours later) | The number of volunteers having reaction, mark − (human skin [2]; 48 hours later) | Average reaction (n = 30) (human skin [2]) | Determination (radiation toxicity) (guinea pig skin; in vivo) | Radiation Toxicity Index (guinea pig skin; in vivo) |
| --- | --- | --- | --- | --- | --- | --- | --- | --- | --- | --- | --- | --- | --- | --- | --- | --- | --- | --- | --- | --- |
| O=c1cc(CO)occ1O [Kojic acid, kojic acid, reference compound] | 88.0 | 0.99 ± 0.11 | – | – | – | – | – | – | – | – | – | – | – | – | – | – | – | – | – | – |
| COc1cc(/C=C/C(=O)Oc2cc(C)ccc2C(C)C)cc(OC)c1OC [Example 3, 5-methyl-2-(methylethyl)phenyl(2E)-3-(3,4,5-trimethoxyphenyl)-2-propanoate] | 45.6 | – | 1.38 ± 0.11 | No irritation | 0.375 | 0 | Radiation Non-Toxic | 0 | 0 | 0 | 0 | 30 | 0 | 0 | 0 | 0 | 30 | 0.00 | – | – |
| 5-methyl-2-(methylethyl)phenyl-3-(3,4,5-trimethoxyphenyl)propanoate [Example 5] | 50.0 | – | 1.40 ± 0.12 | No irritation | 0.375 | – | – | 0 | 0 | 0 | 0 | 30 | 0 | 0 | 0 | 0 | 30 | 0.00 | Radiation Non-Toxic | 0 |
| COc1cc(CCC(=O)O)cc(OC)c1OC [3,4,5-trimethoxy hydrocinnamic acid, reference compound] | 92.5 | – | – | – | – | – | – | – | – | – | – | – | – | – | – | – | – | – | – | – |
| 2-methyl-5-(methylethylphenyl)-2-(3,4,5-trimethoxyphenyl)acetate [Example 2] | 51.2 | – | 1.51 ± 0.13 | No irritation | 0.345 | – | – | 0 | 0 | 0 | 0 | 30 | 0 | 0 | 0 | 1 | 29 | 0.42 | Radiation Non-Toxic | 0 |
| COc1cc(CC(=O)Oc2cc(C)ccc2C(C)C)cc(OC)c1OC [Example 1] | 47.8 | – | 1.71 ± 0.25 | No irritation | 0.375 | 0 | Radiation Non-Toxic | 0 | 0 | 0 | 2 | 28 | 0 | 0 | 0 | 0 | 30 | 0.83 | – | – |
| Cc1ccc(C(C)C)cc1O [Carvacrol, carvacrol, reference compound] | 91.5 | – | – | – | – | – | – | – | – | – | – | – | – | – | – | – | – | – | – | – |
| COc1cc(CC(=O)O)cc(OC)c1OC [3,4,5-trimethoxy phenylacetic acid, reference compound] | 95.8 | – | – | – | – | – | – | – | – | – | – | – | – | – | – | – | – | – | – | – |
| Cc1ccc(C(C)C)c(O)c1 [Thymol, thymol, reference compound] | 94.5 | – | – | – | – | – | – | – | – | – | – | – | – | – | – | – | – | – | – | – |
| COc1cc(C=CC(=O)O)cc(OC)c1OC [3,4,5-trimethoxy cinnamic acid, reference compound] | 96.3 | – | – | – | – | – | – | – | – | – | – | – | – | – | – | – | – | – | – | – |
| COc1cc(/C=C/C(=O)Oc2cc(C(C)C)ccc2C)cc(OC)c1OC [Example 4, 2-methyl-5-(methylethyl)phenyl(2E)-3-(3,4,5-trimethoxyphenyl)-2-propanoate] | 58.9 | – | 1.22 ± 0.18 | No irritation | 0.350 | 0 | Radiation Non-Toxic | 0 | 0 | 0 | 1 | 29 | 0 | 0 | 0 | 0 | 30 | 0.42 | – | – |
| COc1cc(CCC(=O)Oc2cc(C(C)C)ccc2C)cc(OC)c1OC [Example 6, 2-methyl-5-(methylethyl)phenyl-3-(3,4,5-trimethoxyphenyl)propanoate] | 48.1 | – | 1.49 ± 0.11 | No irritation | 0.315 | 0 | Radiation Non-Toxic | 0 | 0 | 0 | 0 | 30 | 0 | 0 | 0 | 0 | 30 | 0.00 | – | – |
